Values after ≈ are worked out from the molar mass of the structure shown. Like-named read-outs stand apart in the source and are kept apart here.
How the values were obtained:
[1] = target: T1, recombinant human GST-Syk (Homo sapiens, UniProt P43405); experiment: Homogeneous Time-Resolved Fluorescence (HTRF) assay for the recombinant human Syk enzyme; format: biochemical; settings: recombinant human GST-Syk 5 pM, ATP 25 μM, read-out: IC50
T1 construct: purchased Carna Biosciences 08-176
Outline: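 HTRF read-out, taken 30 min after adding 2 nM europium anti-pTyr antibody plus 70 nM streptavidin-APC in 40 mM EDTA/Tris pH 7.5, detects peptide phosphorylated by GST-tagged human Syk during a 45-min room-temperature reaction.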

[2] = Solubility in biorelevant fasted state simulated intestinal fluid (FaSSIF); format: physicochemical; settings: 25 °C, fassif, kinetic from dmso stock
Outline: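 Compound from 10 mM DMSO stock diluted into FaSSIF (maximum solubility approximately 200 μM), equilibrated, then filtered by centrifugation through a 0.45 μm polypropylene membrane. Filtrate and a 100 μM standard analysed by HPLC/DAD; solubility = (sample peak area/standard peak area) × standard concentration.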

[3] = Conversion of prodrug to parent in in vitro biorelevant gastrointestinal tract media; format: in vitro ADME; settings: 37° C.; for Conversion in SGF, time: simulated gastric fluid
Experimental: Conversion of Prodrug to Parent in In Vitro Biorelevant Gastrointestinal Tract Media: The likely stability of prodrugs in the gastrointestinal tract can be estimated by incubating a prodrug in simulated gastric and intestinal fluids; compounds were measured for stability in simulated gastric fluid (SGF), fasted state simulated intestinal fluid (FaSSIF), and fasted state simulated intestinal fluid plus pancreatin (FaSSIF+pancreatin). Prodrug stock solutions were made by diluting 2 mg of compound in 200 μL DMSO. A 10 mg/mL Pancreatin in FaSSIF stock solution was made by dissolving 10 mg Pancreatin in 1 mL FaSSIF. Samples were prepared by diluting 10 μL of compound stock solution into 990 μL of biorelevant media (990 μL SGF, 990 μL FaSSIF, or 940 μL FaSSIF plus 50 μL Pancreatin stock) in a 2 mL HPLC vial and vortexing the mixture for a few seconds. The samples were incubated at 37° C. and aliquots were removed for up to 24 hours and injected directly on an HPLC to determine the conversion of prodrug to active drug. In the case of compound precipitation upon sample preparation, an individual sample was prepared for each desired time point and the entire sample was diluted with a known volume of acetonitrile/water (50/50) to ensure compound dissolution before HPLC analysis.

[4] = Conversion of prodrug to parent in intestine homogenate; format: in vitro ADME; settings: prodrug 1 μM, intestine S9 1 mg protein/mL, 37° C., pH 7.4, 2 h
Experimental: Conversion of Prodrug to Parent in Intestine Homogenate:
(§1) The likely stability of prodrugs in the intestine can be estimated by incubating a prodrug with intestine homogenate. Incubations of prodrugs (1 μM) with intestine S9 (1 mg protein/mL) were carried out at 37° C. in a phosphate buffer, pH 7.4. Control incubations contained BSA (1.1 mg/mL) instead of intestine S9 microsomes. Aliquots were removed at 0, 5, 15, 30, 60 and 120 min, treated with 4 volumes of acetonitrile containing 2% formic acid and an internal standard, and centrifuged. The supernatants were analyzed by LC-MS/MS for prodrug disappearance and appearance of active drug. The half-life of the prodrug was calculated from the % prodrug remaining at different time points calculated from on the peak area ratio relative to t=0. The amount of active drug generated at the different time points was determined using a standard curve.

[5] = Conversion of prodrug to parent in liver homogenate; format: in vitro ADME; settings: prodrug 1 μM, liver S9 1 mg protein/mL, 37° C., pH 7.4, 2 h
Experimental: Conversion of Prodrug to Parent in Liver Homogenate:
as §1, with “liver” for “intestine”

[6] = Blood stability assay; format: in vitro ADME; settings: whole blood; human blood, 37° C.
Experimental: The likely stability of prodrugs in the blood can be estimated by incubating a prodrug with blood. A prodrug stock solution was prepared at 10 mM in DMSO and working solutions (100 μM) containing the prodrug were prepared by diluting a suitable amount of the stock solution with acetonitrile/water (50/50). 5 μL of the working solution were added to 495 μL of pre-warmed blood (at 37° C.). After vortexing and mixing, 50 μL of the spiked blood sample were taken for the 0 time point and transferred to another vial containing 200 μL of quenching solution (labetalol, alprazolam and diclofenac in 100% acetonitrile) ensuring that the vial is lidded to prevent evaporation and kept on ice. While keeping the spiked blood sample at 37° C. at the following timepoints (0.25, 0.5, 1, 2 and 3 h) 5 additional aliquots (50 μL) were sampled and mixed with the quenching solution. At the end of the experiment the quenched samples were vortexed for 2 minutes and centrifuged for 10 minutes at 4000 rpm. The supernatant (100 μL) was then transferred and collected into a new 96-well plate and injected into the LC-MS/MS for analysis. For each test compound, the area ratios at each time point to the 0 hour area ratio were compared and converted to a percentage remaining. The percentage remaining were then plotted against time (h) and half life generated using the following equation t½=0.693/kel. Where kel is the elimination rate constant which is determined from the concentration versus time curve by linear regression at the terminal phase of the semi-logarithmic plot.

[7] = dosed intranasally, phase I/II study, allergic rhinitis; cited from earlier work
[8] = phase II clinical trial for allergic rhinitis; cited from earlier work

Compound | IC50 [1] [nM] | Prodrug concentration at 2 h [4] [µM] | Prodrug concentration at 2 h [5] [µM] | half-life at 1 μM [6] [min] | solubility ([2]; Solubility) [µM] | other results
Oc1cccc(Nc2ncc(F)c(Nc3cccc(O)c3)n2)c1 [Example R112] |  |  |  |  |  | PGD2 [7]: statistically significant decrease; clinical safety [7]: safe across a range of indicators; efficacy versus placebo [8]: lack of efficacy versus placebo
COCCN(C)C(=O)OCOC(=O)[C@H]1CC[C@H]([C@@](C)(O)c2ccc(-c3cc(C)cc(Nc4cc(C(F)F)ccn4)n3)cn2)CC1 [Example 4-2, {[(2-methoxyethyl)(methyl)carbamoyl]oxy}methyl trans-4-[(1R)-1-(6-{[4-(difluoromethyl)pyridin-2-yl]amino}-4-methyl-2,3′-bipyridin-6′-yl)-1-hydroxyethyl]cyclohexanecarboxylate] | 9.1 |  |  | 16 |  | 
Cc1cc(Nc2cc(C(F)F)ccn2)nc(-c2ccc([C@](C)(O)[C@H]3CC[C@H](C(=O)OCOC(=O)CC(C)(C)O)CC3)nc2)c1 [Example 3-4, [(3-hydroxy-3-methylbutanoyl)oxy] methyl trans-4-[(1R)-1-(6-{[4-(difluoromethyl)pyridin-2-yl]amino}-4-methyl-2,3′-bipyridin-6′-yl)-1-hydroxyethyl]cyclohexane carboxylate] | 1.8 |  |  | 14 | 59 (≈ 36.1 µg/mL) | 
CCOCCOCCOC(=O)OC(C)OC(=O)[C@H]1CC[C@H]([C@@](C)(O)c2ccc(-c3cc(C)cc(Nc4cc(C(F)F)ccn4)n3)cn2)CC1 (stereo partly drawn) [Example 2-14, 1-methyl-3-oxo-2,4,7,10-tetraoxadodec-1-yl trans-4-[(1R)-1-(6-{[4-(difluoromethyl)pyridin-2-yl]amino}-4-methyl-2,3′-bipyridin-6′-yl)-1-hydroxyethyl]cyclo hexanecarboxylate] | 30.4 |  |  | 199 |  | 

More lines, in order of falling IC50 [1], values ahead:

IC50 [1] [nM] | Prodrug concentration at 2 h [4] [µM] | Prodrug concentration at 2 h [5] [µM] | half-life at 1 μM [6] [min] | solubility ([2]; Solubility) [µM] | Compound | other results
174 | 0 | 0 | 7 |  | CCOCCOCCOC(=O)OCOC(=O)[C@H]1CC[C@H]([C@@](C)(O)c2ccc(-c3cc(C)cc(Nc4cc(C(F)F)ccn4)n3)cn2)CC1 [Example 2-2, 3-oxo-2,4,7,10-tetraoxadodec-1-yl trans-4-[(1R)-1-(6-{[4-(difluoromethyl)pyridin-2-yl]amino}-4-methyl-2,3′-bipyridin-6′-yl)-1-hydroxyethyl]cyclo hexanecarboxylate] | Conversion in FaSSIF + Pancreatin, time ([3]; 3 h): 100%, 3 h; Conversion in FaSSIF, time ([3]; 5 h): 0%, 5 h; Conversion in SGF, time ([3]; 5 h): 0%, 5 h
3.6 | 0.321 | 0.314 | 15 |  | Cc1cc(Nc2cc(C(F)F)ccn2)nc(-c2ccc([C@](C)(O)[C@H]3CC[C@H](C(=O)OC[N+]4(C)CCOCC4)CC3)nc2)c1.[I-] [Example 5-1, 4-{[({trans-4-[(1R)-1-(6-{[4-(Difluoromethyl)pyridin-2-yl]amino}-4-methyl-2,3′-bipyridin-6′-yl)-1-hydroxyethyl]cyclohexyl}carbonyl)oxy]methyl}-4-methylmorpholin-4-ium] | solubility ([2]; FaSSIF (fasted state simulated intestinal fluid), FaSSIF, equilibrated overnight at 25° C., maximum solubility approximately 200 μM, read-out: Solubility): 200 µM; Conversion in FaSSIF + Pancreatin, time ([3]; 3 h): 45%, 3 h; Conversion in FaSSIF, time ([3]; 3 h): 12%, 3 h; Conversion in SGF, time ([3]; 5 h): 0%, 5 h
1.2 |  |  | 29 | 41 (≈ 27.6 µg/mL) | COCCOCCOCC(=O)OCOC(=O)[C@H]1CC[C@H]([C@@](C)(O)c2ccc(-c3cc(C)cc(Nc4cc(C(F)F)ccn4)n3)cn2)CC1 [Example 3-29, 3-oxo-2,5,8,11-tetraoxadodec-1-yl trans-4-[(1R)-1-(6-{[4-(difluoromethyl)pyridin-2-yl]amino}-4-methyl-2,3′-bipyridin-6′-yl)-1-hydroxyethyl]cyclohexane carboxylate] | 
0.8 | 0.844 | 0.622 | 24 | 140 | Cc1cc(Nc2cc(C(F)F)ccn2)nc(-c2ccc([C@](C)(O)[C@H]3CC[C@H](C(=O)OCn4cc[n+](C)c4)CC3)nc2)c1 [Example 6-1, 1-{[({Trans-4-[(1R)-1-(6-{[4-(Difluoromethyl)pyridin-2-yl]amino}-4-methyl-2,3′-bipyridin-6′-yl)-1-hydroxyethyl]cyclohexyl}carbonyl)oxy]methyl}-3-methyl-1H-imidazol-3-ium] | 

Source: US20150299125A1, “PRODRUG BIPYRIDYLAMINOPYRIDINES AS SYK INHIBITORS” (MERCK SHARP & DOHME CORP., priority 2012, published 2015)
